As usually defined, the IC50 is the concentration at which inhibition is half-maximal. A lower IC50 goes with greater potency.

Here are results for 22 compounds from patent publication US20110237528A1, “COMPOSITIONS AND METHODS COMPRISING IMIDAZOLE AND TRIAZOLE DERIVATIVES” (INSTITUTE FOR ONEWORLD HEALTH, priority 2008, published 2011).

The target of the first experiment is T1, CFTR in the CHO-CFTR cell line (Homo sapiens, UniProt P13569).
T1 construct: expressed in transfected cells; host or cells: CHO (CHO-CFTR cell line)
T1 sequence (P13569 whole entry): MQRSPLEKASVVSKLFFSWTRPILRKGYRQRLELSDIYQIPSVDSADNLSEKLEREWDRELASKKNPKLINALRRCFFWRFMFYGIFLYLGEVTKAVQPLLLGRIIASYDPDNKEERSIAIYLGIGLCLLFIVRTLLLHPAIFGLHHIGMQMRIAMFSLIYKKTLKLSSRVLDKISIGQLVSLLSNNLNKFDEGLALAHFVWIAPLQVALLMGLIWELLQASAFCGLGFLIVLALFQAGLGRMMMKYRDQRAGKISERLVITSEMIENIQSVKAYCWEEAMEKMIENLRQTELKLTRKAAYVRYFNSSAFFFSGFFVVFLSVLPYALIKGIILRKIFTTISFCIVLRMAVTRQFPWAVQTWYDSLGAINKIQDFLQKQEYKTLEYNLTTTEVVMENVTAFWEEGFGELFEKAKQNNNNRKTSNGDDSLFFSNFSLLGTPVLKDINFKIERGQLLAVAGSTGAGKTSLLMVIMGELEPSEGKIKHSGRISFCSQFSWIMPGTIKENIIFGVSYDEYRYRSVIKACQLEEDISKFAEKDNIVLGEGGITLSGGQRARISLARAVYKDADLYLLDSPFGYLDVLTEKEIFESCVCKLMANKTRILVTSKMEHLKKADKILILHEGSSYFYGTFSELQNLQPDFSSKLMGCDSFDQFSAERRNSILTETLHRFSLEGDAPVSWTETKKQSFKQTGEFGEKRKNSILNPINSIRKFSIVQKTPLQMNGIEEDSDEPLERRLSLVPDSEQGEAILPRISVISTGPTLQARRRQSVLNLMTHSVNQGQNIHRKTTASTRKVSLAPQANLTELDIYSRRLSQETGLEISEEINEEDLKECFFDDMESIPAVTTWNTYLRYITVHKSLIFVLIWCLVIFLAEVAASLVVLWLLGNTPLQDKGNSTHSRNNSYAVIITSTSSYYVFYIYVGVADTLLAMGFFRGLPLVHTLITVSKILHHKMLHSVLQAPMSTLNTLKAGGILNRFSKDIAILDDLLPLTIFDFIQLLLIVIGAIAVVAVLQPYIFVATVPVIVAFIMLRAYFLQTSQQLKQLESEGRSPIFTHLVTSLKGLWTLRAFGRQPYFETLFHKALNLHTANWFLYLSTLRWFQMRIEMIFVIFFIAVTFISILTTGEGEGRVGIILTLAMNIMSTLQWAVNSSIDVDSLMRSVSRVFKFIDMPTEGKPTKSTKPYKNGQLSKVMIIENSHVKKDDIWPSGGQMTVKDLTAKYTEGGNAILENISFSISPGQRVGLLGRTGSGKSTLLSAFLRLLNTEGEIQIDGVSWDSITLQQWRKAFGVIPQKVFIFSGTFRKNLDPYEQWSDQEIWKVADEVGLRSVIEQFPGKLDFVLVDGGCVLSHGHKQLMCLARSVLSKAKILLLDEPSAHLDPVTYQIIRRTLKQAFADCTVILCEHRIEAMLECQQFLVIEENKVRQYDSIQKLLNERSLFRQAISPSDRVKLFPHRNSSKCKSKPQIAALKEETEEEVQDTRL
In words: CHO-CFTR assay (FLIPR assay, same conditions as T84 assay). Format: cell-based. The conditions noted are these: average of at least 2 runs unless marked n = 1.
With `Cc1noc(C)c1CCNC(=O)c1ncn(-c2cc(Cl)c(O)c(Cl)c2)n1` [Compound 74, 1-(3,5-dichloro-4-hydroxyphenyl)-N-(2-(3,5-dimethylisoxazol-4-yl)ethyl)-1H-1,2,4-triazole-3-carboxamide], the IC50 was at least 50 µM.
The compound `CC(C)(C)CCN(Cc1cccc(OC(F)(F)F)c1)C(=O)c1ncn(-c2cc(Cl)c(O)c(Cl)c2)n1` [Compound 77, 1-(3,5-dichloro-4-hydroxyphenyl)-N-(3,3-dimethylbutyl)-N-(3-(trifluoromethoxy)benzyl)-1H-1,2,4-triazole-3-carboxamide] had a 50% inhibitory concentration (IC50) of at least 50 µM.
On the same count and under the same terms, the result for `CC(C)(C)CCN(Cc1cccc(C(F)(F)F)c1)C(=O)c1ncn(-c2cc(Cl)c(O)c(Cl)c2)n1` [Compound 79, 1-(3,5-dichloro-4-hydroxyphenyl)-N-(3,3-dimethylbutyl)-N-(3-(trifluoromethyl)benzyl)-1H-1,2,4-triazole-3-carboxamide] reads at least 50 µM; that for `O=C(c1ncn(-c2cc(Cl)c(O)c(Cl)c2)n1)N(Cc1ccccc1)Cc1cccc(OC(F)(F)F)c1` [Compound 84, N-benzyl-1-(3,5-dichloro-4-hydroxyphenyl)-N-(3-(trifluoromethoxy)benzyl)-1H-1,2,4-triazole-3-carboxamide], at least 50 µM.
The same measure, in the same setting: the result for `O=C(c1ncn(-c2cc(Cl)c(O)c(Cl)c2)n1)N(Cc1ccccc1)Cc1cccc(C(F)(F)F)c1` [Compound 85, N-benzyl-1-(3,5-dichloro-4-hydroxyphenyl)-N-(3-(trifluoromethyl)benzyl)-1H-1,2,4-triazole-3-carboxamide] reads at least 50 µM; that for `C=CCN(Cc1ccc(C(C)C)cc1)C(=O)c1ncn(-c2cc(Cl)c(O)c(Cl)c2)n1` [Compound 101, N-allyl-1-(3,5-dichloro-4-hydroxyphenyl)-N-(4-isopropylbenzyl)-1H-1,2,4-triazole-3-carboxamide], at least 50 µM; that for `COCCOCCOCCOCCN(Cc1ccc(Cl)c(Cl)c1)C(=O)c1ncn(-c2cc(Cl)c(O)c(Cl)c2)n1` [Compound 111, 1-(3,5-dichloro-4-hydroxyphenyl)-N-(3,4-dichlorobenzyl)-N-(2,5,8,11-tetraoxatridecan-13-yl)-1H-1,2,4-triazole-3-carboxamide], at least 50 µM.
The same measure, in the same setting: the result for `COCCOCCOCCN(Cc1cccc(OC(F)(F)F)c1)C(=O)c1ncn(-c2cc(Cl)c(O)c(Cl)c2)n1` [Compound 113, 1-(3,5-dichloro-4-hydroxyphenyl)-N-(2-(2-(2-methoxyethoxy)ethoxy)ethyl)-N-(3-(trifluoromethoxy)benzyl)-1H-1,2,4-triazole-3-carboxamide] reads at least 50 µM.
Compound `COCCOCCOCCOCCN(Cc1cccc(OC(F)(F)F)c1)C(=O)c1ncn(-c2cc(Cl)c(O)c(Cl)c2)n1` [Compound 115, 1-(3,5-dichloro-4-hydroxyphenyl)-N-(2,5,8,11-tetraoxatridecan-13-yl)-N-(3-(trifluoromethoxy)benzyl)-1H-1,2,4-triazole-3-carboxamide] registered an IC50 of at least 50 µM.
Take `CC(C)(C)c1ccc(CN(CCOCCOCCOCCOCCOCCOCc2ccccc2)C(=O)c2ncn(-c3cc(Cl)c(O)c(Cl)c3)n2)cc1` [Compound 116, N-(4-tert-butylbenzyl)-1-(3,5-dichloro-4-hydroxyphenyl)-N-(1-phenyl-2,5,8,11,14,17-hexaoxanonadecan-19-yl)-1H-1,2,4-triazole-3-carboxamide]: the concentration for half-maximal inhibition (IC50) was at least 50 µM.
As for `COCCOCCOCCOCCOCCOCCOCCOCCN(Cc1ccc(C(C)(C)C)cc1)C(=O)c1ncn(-c2cc(Cl)c(O)c(Cl)c2)n1` [Compound 117, N-(4-tert-butylbenzyl)-1-(3,5-dichloro-4-hydroxyphenyl)-N-(2,5,8,11,14,17,20,23-octaoxapentacosan-25-yl)-1H-1,2,4-triazole-3-carboxamide], the concentration for half-maximal inhibition (IC50) is at least 50 µM.
The same measure, in the same setting: the result for `COCCOCCOCCOCCOCCN(Cc1ccc(C(C)(C)C)cc1)C(=O)c1ncn(-c2cc(Cl)c(O)c(Cl)c2)n1` [Compound 118, N-(4-tert-butylbenzyl)-1-(3,5-dichloro-4-hydroxyphenyl)-N-(2,5,8,11,14-pentaoxahexadecan-16-yl)-1H-1,2,4-triazole-3-carboxamide] reads at least 50 µM; that for `COCCOCCOCCOCCN(Cc1ccc(C(C)(C)C)cc1)C(=O)c1ncn(-c2cc(Cl)c(O)c(Cl)c2)n1` [Compound 120, N-(4-tert-butylbenzyl)-1-(3,5-dichloro-4-hydroxyphenyl)-N-(2,5,8,11-tetraoxatridecan-13-yl)-1H-1,2,4-triazole-3-carboxamide], at least 50 µM; that for `COCCOCCOCCOCCOCCOCCOCCOCCON(Cc1ccc(Oc2ccccc2)cc1)C(=O)c1ncn(-c2cc(Cl)c(O)c(Cl)c2)n1` [Compound 121, N-(2,5,8,11,14,17,20,23-octaoxapentacosan-25-yloxy)-1-(3,5-dichloro-4-hydroxyphenyl)-N-(4-phenoxybenzyl)-1H-1,2,4-triazole-3-carboxamide], at least 50 µM.
As for `COCCOCCOCCOCCON(Cc1ccc(Oc2ccccc2)cc1)C(=O)c1ncn(-c2cc(Cl)c(O)c(Cl)c2)n1` [Compound 122, N-(2,5,8,11-tetraoxatridecan-13-yloxy)-1-(3,5-dichloro-4-hydroxyphenyl)-N-(4-phenoxybenzyl)-1H-1,2,4-triazole-3-carboxamide], the IC50 was at least 50 µM.
Still for that read-out and setting: the result for `COCCOCCOCCON(Cc1ccc(Oc2ccccc2)cc1)C(=O)c1ncn(-c2cc(Cl)c(O)c(Cl)c2)n1` [Compound 123, 1-(3,5-dichloro-4-hydroxyphenyl)-N-(2-(2-(2-methoxyethoxy)ethoxy)ethoxy)-N-(4-phenoxybenzyl)-1H-1,2,4-triazole-3-carboxamide] reads at least 50 µM; that for `CON(Cc1ccc(C(C)C)cc1)C(=O)c1ncn(-c2cc(Cl)c(O)c(Cl)c2)n1` [Compound 128, 1-(3,5-dichloro-4-hydroxyphenyl)-N-(4-isopropylbenzyl)-N-methoxy-1H-1,2,4-triazole-3-carboxamide], at least 50 µM.

The next experiment relates to cholera toxin (CTX)-induced net fluid secretion in small intestine loops.
Test: not given
Further details: species or system mice (CD1 strain). The settings on record: mouse, in vivo.
Regarding `O=C(NC(c1ccccc1)c1ccccc1)c1ncn(-c2cc(Cl)c(O)c(Cl)c2)n1` [Compound 2, N-benzhydryl-1-(3,5-dichloro-4-hydroxyphenyl)-1H-1,2,4-triazole-3-carboxamide], the “% inhibition @ 100 μg dose (closed loop % inhibition)” value (“% inhibition @ 100 μg dose” for short) is given as 42.9%.
The same measure, in the same setting: the result for `O=C(NCCC(c1ccccc1)c1ccccc1)c1ncn(-c2cc(Cl)c(O)c(Cl)c2)n1` [Compound 31, 1-(3,5-dichloro-4-hydroxyphenyl)-N-(3,3-diphenylpropyl)-1H-1,2,4-triazole-3-carboxamide] reads 45.1%.
Turning to `O=C(NCc1ccc(Cl)c(Cl)c1)c1ncn(-c2cc(Cl)c(O)c(Cl)c2)n1` [Compound 37, 1-(3,5-dichloro-4-hydroxyphenyl)-N-(3,4-dichlorobenzyl)-1H-1,2,4-triazole-3-carboxamide], the “% inhibition @ 100 μg dose” value was 76.9%.
In the case of `O=C(NCc1ccc(Oc2ccccc2)cc1)c1ncn(-c2cc(Cl)c(O)c(Cl)c2)n1` [Compound 49, 1-(3,5-dichloro-4-hydroxyphenyl)-N-(4-phenoxybenzyl)-1H-1,2,4-triazole-3-carboxamide], the “% inhibition @ 100 μg dose” value came out at 42.3%.
On the same count and under the same terms, the result for `Oc1c(Cl)cc(-n2cnc(C(O)(c3cc(F)cc(F)c3)c3cc(F)cc(F)c3)n2)cc1Cl` [Compound 52, 4-(3-(bis(3,5-difluorophenyl)(hydroxy)methyl)-1H-1,2,4-triazol-1-yl)-2,6-dichlorophenol] reads 55.3%.
